Tested on: orthotopic 4T1 breast cancer
Assay: Tumor transport model simulation: IFP/IFV, solute concentration and transvascular convective/diffusive flux profiles
Details: DEX treatment

## C[C@@H]1C[C@H]2[C@@H]3CCC4=CC(=O)C=C[C@]4(C)[C@@]3(F)[C@@H](O)C[C@]2(C)[C@@]1(O)C(=O)CO [DEX, dexamethasone]
  increase in volume fraction of tumor dominated by convective transport vs control: 61%

Reference: patent US20250299826A1, “OPTIMAL TUMOR MICROENVIRONMENT NORMALIZATION THERAPY” (University of Connecticut, priority 2022, published 2025)
